Measured values as given in paper PMC4158420, “Crenactin from Pyrobaculum calidifontis is closely related to actin in structure and forms steep helical filaments” (Febs Letters, 2014).

Target: T1, crenactin (Pc crenactin) (Pyrobaculum calidifontis, UniProt A3MWN5)
T1 construct: gene cren-1; full length 1-432, codon-optimised, expressed in E. coli as His6-SUMO fusion, tag cleaved by SENP1 with no residues added or removed; helical filament in crystal
Test: X-ray crystallography, […] Å
Type: binding
Details: crystals from 100 mM phosphate/citrate pH 4.2, 200 mM lithium sulfate, 20% PEG 1000; one ADP per subunit, 0 Mg; nucleotide cleft between domains I and II

T1 sequence (A3MWN5 whole entry, the tested form may be a part): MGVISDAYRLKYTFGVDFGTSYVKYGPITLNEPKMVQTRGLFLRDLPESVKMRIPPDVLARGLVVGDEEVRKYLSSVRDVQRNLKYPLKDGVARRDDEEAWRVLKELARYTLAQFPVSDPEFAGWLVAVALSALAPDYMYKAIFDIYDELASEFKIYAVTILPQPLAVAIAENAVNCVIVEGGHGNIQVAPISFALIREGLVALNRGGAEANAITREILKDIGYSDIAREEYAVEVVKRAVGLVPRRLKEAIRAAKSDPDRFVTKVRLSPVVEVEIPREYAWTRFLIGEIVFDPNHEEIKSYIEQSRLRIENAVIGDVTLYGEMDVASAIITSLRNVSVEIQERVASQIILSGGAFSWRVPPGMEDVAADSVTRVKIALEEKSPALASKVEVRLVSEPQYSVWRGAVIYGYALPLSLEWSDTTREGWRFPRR

Q: Which “X-ray crystallography, 3.2 Å” value does the source give for `Nc1ncnc2c1ncn2[C@@H]1O[C@H](COP(=O)(O)OP(=O)(O)O)[C@@H](O)[C@H]1O` [ADP] here?
A: The value was “one molecule of ADP was located and added in each crenactin subunit”.
